From ChEMBL document CHEMBL5291721, “A preclinical secondary pharmacology resource illuminates target-adverse drug reaction associations of marketed drugs” (Nat Commun, 2023)
Where “and” joins values, the source holds several entries; their conditions need not be identical. Equal entries are not always repeated.

Columns and labels:
[1] = biological target: T1, Adenosine receptor A3 (Homo sapiens, UniProt P0DMS8)
T1 sequence (P0DMS8 whole entry): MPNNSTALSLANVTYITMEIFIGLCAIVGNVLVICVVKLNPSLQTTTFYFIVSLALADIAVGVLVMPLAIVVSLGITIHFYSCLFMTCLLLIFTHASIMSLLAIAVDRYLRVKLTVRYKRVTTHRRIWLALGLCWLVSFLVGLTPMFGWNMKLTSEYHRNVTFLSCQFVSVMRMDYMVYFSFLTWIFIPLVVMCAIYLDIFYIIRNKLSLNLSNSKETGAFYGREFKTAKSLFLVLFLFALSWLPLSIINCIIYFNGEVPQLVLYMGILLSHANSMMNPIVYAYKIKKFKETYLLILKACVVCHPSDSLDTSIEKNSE

[2] = biological target: T2, Alpha-1A adrenergic receptor (Homo sapiens, UniProt P35348); format: functional, cell-based
T2 sequence (P35348 whole entry): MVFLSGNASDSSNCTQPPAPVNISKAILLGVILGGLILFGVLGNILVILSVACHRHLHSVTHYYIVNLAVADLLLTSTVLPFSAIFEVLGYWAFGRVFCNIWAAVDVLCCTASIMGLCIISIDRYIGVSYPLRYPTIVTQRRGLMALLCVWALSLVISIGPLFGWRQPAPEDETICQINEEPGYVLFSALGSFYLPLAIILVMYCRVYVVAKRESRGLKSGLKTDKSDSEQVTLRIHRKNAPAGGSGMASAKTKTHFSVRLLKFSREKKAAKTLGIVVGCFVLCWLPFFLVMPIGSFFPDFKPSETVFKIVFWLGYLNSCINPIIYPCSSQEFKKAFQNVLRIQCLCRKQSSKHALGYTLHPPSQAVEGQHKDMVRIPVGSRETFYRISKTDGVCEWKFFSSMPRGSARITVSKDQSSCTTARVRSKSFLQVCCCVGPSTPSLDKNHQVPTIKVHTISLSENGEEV

[3] = biological target: T2, Alpha-1A adrenergic receptor; format: functional, cell-based; remark: listed apart in the source
[4] = biological target: T3, Prostaglandin G/H synthase 1 (Rattus norvegicus, UniProt Q63921); format: functional
T3 sequence (Q63921 whole entry): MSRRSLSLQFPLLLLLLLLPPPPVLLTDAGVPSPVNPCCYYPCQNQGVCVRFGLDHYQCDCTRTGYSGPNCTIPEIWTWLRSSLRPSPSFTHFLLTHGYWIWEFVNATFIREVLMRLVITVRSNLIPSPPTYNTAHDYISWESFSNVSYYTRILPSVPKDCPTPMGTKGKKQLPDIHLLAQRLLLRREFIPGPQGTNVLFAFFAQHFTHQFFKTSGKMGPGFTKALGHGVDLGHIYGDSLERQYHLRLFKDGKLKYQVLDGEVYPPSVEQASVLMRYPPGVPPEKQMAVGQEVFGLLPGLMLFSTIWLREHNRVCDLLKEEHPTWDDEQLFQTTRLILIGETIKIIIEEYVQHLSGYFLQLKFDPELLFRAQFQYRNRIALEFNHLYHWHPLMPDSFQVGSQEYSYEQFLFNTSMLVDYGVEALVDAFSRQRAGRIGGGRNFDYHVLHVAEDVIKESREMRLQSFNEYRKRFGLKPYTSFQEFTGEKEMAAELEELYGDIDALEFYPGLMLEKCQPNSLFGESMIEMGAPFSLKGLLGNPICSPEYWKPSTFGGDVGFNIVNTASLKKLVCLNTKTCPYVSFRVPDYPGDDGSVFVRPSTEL

[5] = biological target: Kappa-type opioid receptor (Homo sapiens, UniProt P41145)
[6] = biological target: cGMP-inhibited 3',5'-cyclic phosphodiesterase 3A (Homo sapiens, UniProt Q14432); format: functional
[7] = biological target: Sodium-dependent dopamine transporter (Homo sapiens, UniProt Q01959)
[8] = biological target: Voltage-dependent L-type calcium channel subunit alpha-1C (Rattus norvegicus, UniProt P22002); format: functional
[9] = biological target: T4, Gastrin/cholecystokinin type B receptor (Homo sapiens, UniProt P32239)
T4 sequence (P32239 whole entry): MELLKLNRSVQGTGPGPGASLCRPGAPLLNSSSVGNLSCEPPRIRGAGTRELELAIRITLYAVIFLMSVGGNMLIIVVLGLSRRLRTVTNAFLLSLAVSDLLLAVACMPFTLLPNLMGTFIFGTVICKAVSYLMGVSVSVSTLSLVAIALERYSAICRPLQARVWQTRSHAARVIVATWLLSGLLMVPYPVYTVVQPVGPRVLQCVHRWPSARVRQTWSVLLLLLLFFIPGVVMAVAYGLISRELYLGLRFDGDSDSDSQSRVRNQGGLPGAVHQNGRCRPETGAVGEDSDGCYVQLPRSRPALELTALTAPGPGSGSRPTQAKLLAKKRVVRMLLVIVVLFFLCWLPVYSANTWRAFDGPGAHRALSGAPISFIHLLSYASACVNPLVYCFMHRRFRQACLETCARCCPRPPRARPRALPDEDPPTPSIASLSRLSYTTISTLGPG

[10] = biological target: T5, Amine oxidase [flavin-containing] A (Homo sapiens, UniProt P21397); format: functional
T5 sequence (P21397 whole entry): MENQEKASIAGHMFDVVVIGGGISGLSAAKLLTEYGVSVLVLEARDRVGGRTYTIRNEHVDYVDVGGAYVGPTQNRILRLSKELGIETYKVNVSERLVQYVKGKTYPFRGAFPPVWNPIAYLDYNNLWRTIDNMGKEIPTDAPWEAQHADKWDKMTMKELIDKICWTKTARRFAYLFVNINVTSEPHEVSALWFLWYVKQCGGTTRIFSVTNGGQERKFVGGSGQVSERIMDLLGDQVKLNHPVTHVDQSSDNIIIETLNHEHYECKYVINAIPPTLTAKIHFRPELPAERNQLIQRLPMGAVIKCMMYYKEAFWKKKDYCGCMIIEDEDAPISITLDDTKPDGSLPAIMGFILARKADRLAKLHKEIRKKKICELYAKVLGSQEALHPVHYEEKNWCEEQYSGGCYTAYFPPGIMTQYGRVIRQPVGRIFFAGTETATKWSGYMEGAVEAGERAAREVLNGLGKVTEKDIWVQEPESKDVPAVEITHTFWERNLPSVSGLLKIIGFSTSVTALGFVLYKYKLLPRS

[11] = biological target: Gamma-aminobutyric acid receptor subunit alpha-1 (Rattus norvegicus, UniProt P62813); format: functional
[12] = biological target: Mu-type opioid receptor (Homo sapiens, UniProt P35372)
[13] = biological target: Vasopressin V1a receptor (Homo sapiens, UniProt P37288)
[14] = biological target: Sodium-dependent noradrenaline transporter (Homo sapiens, UniProt P23975)
Further: assay procedure not described here.

Sodium-dependent noradrenaline transporter, sequence (P23975 whole entry): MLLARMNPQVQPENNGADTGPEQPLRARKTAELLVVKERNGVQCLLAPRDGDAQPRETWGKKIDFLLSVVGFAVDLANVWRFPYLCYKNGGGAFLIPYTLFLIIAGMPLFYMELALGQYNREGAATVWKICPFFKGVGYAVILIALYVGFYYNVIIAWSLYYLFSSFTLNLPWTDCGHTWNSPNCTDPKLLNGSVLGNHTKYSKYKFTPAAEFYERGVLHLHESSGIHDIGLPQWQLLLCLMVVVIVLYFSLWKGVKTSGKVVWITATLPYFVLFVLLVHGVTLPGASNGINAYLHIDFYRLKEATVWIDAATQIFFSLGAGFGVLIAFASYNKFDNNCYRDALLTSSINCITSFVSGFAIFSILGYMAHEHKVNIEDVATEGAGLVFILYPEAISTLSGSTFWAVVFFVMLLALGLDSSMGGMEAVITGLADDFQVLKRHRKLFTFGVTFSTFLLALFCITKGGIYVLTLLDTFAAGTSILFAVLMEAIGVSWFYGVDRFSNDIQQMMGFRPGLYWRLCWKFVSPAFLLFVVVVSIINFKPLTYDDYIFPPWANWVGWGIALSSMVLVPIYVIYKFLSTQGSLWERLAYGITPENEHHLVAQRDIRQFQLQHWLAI
Gamma-aminobutyric acid receptor subunit alpha-1, sequence (P62813 whole entry): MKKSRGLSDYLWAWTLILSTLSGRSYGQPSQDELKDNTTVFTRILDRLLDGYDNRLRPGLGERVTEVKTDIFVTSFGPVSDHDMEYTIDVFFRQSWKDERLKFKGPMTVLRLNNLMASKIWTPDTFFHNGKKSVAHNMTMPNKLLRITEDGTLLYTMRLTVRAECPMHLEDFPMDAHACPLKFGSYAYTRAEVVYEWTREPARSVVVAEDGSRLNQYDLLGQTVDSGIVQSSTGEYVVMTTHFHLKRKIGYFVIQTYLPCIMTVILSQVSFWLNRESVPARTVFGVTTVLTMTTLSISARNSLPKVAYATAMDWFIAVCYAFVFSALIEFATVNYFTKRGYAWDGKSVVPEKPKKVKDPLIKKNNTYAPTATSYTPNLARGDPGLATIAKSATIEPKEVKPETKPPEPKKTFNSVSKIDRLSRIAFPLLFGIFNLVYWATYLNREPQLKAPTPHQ
Kappa-type opioid receptor, sequence (P41145 whole entry): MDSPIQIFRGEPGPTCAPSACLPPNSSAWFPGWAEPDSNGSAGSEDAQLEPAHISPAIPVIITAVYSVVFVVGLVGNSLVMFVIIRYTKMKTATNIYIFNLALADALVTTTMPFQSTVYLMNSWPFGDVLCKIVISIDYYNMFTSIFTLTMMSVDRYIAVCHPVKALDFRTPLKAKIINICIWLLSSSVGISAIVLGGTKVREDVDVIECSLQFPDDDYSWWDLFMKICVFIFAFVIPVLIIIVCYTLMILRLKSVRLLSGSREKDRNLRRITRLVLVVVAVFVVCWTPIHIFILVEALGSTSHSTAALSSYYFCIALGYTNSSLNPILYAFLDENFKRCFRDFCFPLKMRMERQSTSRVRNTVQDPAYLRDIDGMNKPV
Sodium-dependent dopamine transporter, sequence (Q01959 whole entry): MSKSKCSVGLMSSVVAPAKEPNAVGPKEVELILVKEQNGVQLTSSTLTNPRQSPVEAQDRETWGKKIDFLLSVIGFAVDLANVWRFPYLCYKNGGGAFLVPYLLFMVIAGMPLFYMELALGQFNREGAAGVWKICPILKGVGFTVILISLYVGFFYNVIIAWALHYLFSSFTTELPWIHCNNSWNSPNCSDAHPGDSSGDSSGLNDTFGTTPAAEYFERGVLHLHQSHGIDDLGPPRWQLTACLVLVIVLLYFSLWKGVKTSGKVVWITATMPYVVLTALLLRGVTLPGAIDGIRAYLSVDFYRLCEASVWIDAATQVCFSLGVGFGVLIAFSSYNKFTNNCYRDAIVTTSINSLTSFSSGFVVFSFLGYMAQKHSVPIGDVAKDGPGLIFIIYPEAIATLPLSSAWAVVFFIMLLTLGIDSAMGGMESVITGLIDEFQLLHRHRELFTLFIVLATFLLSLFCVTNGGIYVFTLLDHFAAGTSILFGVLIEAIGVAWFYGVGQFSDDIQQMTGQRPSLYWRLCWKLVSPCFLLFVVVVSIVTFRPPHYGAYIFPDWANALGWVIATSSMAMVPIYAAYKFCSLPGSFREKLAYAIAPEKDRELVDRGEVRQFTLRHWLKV
Mu-type opioid receptor, sequence (P35372 whole entry): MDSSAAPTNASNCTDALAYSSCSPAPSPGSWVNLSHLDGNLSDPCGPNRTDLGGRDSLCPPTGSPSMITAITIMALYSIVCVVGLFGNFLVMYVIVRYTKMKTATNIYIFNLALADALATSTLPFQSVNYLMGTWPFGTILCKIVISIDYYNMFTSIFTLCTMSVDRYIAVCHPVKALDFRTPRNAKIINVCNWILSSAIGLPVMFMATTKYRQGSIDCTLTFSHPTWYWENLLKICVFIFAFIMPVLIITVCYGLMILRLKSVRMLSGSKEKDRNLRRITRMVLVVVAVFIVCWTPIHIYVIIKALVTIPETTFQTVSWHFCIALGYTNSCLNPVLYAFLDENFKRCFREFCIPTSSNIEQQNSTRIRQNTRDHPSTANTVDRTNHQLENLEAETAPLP
Vasopressin V1a receptor, sequence (P37288 whole entry): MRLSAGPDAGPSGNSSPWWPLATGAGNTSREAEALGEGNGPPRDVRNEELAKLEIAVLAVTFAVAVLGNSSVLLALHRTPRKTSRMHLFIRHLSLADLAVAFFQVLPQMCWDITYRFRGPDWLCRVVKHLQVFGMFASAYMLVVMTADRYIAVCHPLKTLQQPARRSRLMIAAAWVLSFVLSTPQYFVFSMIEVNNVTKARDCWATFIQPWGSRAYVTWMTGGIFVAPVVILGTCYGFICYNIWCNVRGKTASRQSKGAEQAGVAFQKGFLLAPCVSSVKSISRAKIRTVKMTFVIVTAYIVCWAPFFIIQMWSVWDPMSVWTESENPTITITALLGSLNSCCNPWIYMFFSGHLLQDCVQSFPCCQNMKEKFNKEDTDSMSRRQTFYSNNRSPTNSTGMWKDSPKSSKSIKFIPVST
Voltage-dependent L-type calcium channel subunit alpha-1C, sequence (P22002 whole entry): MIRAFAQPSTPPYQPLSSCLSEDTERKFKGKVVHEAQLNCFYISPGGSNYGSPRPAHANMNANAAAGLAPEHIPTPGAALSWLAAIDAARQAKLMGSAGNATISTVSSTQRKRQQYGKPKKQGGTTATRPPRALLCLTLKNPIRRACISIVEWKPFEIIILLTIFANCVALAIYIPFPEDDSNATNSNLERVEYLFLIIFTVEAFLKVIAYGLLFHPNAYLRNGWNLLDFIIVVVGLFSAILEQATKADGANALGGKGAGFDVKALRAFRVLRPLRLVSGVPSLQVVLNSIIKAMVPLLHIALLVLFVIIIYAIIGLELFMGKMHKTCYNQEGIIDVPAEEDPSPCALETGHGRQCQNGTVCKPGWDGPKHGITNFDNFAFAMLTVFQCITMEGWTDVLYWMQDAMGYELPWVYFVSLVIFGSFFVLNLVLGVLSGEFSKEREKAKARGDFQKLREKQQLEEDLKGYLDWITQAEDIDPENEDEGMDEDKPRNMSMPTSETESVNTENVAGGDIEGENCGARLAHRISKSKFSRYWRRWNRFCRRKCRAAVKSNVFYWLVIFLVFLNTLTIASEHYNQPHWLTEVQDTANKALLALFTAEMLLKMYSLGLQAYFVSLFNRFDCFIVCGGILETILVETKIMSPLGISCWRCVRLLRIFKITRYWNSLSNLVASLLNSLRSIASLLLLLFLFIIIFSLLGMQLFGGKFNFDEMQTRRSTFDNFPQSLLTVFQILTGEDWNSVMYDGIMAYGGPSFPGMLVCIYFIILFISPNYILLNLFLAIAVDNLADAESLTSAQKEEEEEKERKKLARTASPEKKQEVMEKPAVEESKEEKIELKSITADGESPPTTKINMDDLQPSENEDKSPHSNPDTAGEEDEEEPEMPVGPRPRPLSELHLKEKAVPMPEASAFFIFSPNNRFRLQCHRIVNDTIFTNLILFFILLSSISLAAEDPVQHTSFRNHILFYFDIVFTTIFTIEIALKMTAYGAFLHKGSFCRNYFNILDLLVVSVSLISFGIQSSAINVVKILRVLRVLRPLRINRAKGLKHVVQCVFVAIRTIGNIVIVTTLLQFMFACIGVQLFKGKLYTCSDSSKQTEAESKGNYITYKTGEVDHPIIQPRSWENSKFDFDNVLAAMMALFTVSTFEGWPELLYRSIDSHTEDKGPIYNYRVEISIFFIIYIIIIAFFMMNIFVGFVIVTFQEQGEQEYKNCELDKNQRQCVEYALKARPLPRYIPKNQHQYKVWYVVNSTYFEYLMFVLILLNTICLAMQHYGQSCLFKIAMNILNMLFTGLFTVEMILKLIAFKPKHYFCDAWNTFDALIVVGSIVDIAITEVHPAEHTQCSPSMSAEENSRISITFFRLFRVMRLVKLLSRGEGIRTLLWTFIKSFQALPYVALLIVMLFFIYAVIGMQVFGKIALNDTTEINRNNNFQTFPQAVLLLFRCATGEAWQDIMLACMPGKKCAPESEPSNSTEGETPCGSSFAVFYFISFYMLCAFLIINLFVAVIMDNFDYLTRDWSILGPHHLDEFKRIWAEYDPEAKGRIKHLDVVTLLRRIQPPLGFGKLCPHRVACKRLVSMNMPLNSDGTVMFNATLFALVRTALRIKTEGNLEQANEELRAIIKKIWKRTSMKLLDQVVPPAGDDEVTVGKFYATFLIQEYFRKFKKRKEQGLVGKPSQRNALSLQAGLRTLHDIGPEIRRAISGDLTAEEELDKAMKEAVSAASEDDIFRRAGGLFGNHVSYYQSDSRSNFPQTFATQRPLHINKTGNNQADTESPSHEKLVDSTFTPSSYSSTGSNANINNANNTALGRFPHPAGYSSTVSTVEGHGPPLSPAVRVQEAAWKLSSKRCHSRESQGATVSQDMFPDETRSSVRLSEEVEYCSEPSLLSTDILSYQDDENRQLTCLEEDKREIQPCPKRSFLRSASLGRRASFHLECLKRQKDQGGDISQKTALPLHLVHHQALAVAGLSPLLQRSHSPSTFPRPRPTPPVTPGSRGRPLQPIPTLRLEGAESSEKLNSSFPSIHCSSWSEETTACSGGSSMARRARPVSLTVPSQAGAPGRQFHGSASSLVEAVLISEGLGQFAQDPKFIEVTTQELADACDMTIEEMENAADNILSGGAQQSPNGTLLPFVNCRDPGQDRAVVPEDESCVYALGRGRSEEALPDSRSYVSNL

Row | SMILES | AC50 [1] | AC50 [2] [µM] | AC50 [3] [µM] | AC50 [4] [µM] | AC50 [5] [µM] | AC50 [6] [µM] | AC50 [7] | AC50 [8] [µM] | AC50 [9] [µM] | AC50 [10] [µM] | AC50 [11] [µM] | AC50 [12] [µM] | AC50 [13] [µM] | AC50 [14] [µM]
1 | Cc1onc(-c2ccccc2)c1-c1ccc(S(N)(=O)=O)cc1 [VALDECOXIB] | > 30 µM | > 30 | > 30 | > 30 | > 10 | > 30 | > 30 µM | > 10 | > 30 | > 10 | > 10 | > 30 | > 30 | –
2 | CCCN(CCC)C(=O)Cc1c(-c2ccc(Cl)cc2)nc2ccc(Cl)cn12 [ALPIDEM] | 11.5 µM | > 10 | – | > 30 | 13 | > 30 | > 30 µM | > 30 | > 30 | > 30 | 0.0431 | > 10 | > 30 | > 30
3 | COc1cc2nccc(Oc3ccc(NC(=O)C4(C(=O)Nc5ccc(F)cc5)CC4)cc3)c2cc1OC [CABOZANTINIB] | 3.7 µM | 9.03 | > 30 | > 30 | – | > 30 | > 30 µM | – | – | > 30 | > 30 | > 30 | > 30 | > 30
4 | CC(C)Cc1ccc(C(C)C(=O)O)cc1 (stereo unspecified) [IBUPROFEN] | > 30 µM | > 30 | > 30 | – | > 10 | > 30 | > 30 µM | > 10 | > 30 | > 10 | > 10 | > 30 | > 30 | > 30
5 | N[C@@H](CC(=O)N1CCn2c(nnc2C(F)(F)F)C1)Cc1cc(F)c(F)cc1F [SITAGLIPTIN] | > 30 µM | – | > 30 | > 30 | > 10 | > 30 | > 30 µM | > 10 | > 10 | > 30 | > 30 | > 30 | > 30 | > 30
6 | C=CC[C@@H]1/C=C(\C)C[C@H](C)C[C@H](OC)[C@H]2O[C@@](O)(C(=O)C(=O)N3CCCC[C@H]3C(=O)O[C@H](/C(C)=C/[C@@H]3CC[C@@H](O)[C@H](OC)C3)[C@H](C)[C@@H](O)CC1=O)[C@H](C)C[C@@H]2OC [TACROLIMUS ANHYDROUS] | 11 µM and 27.2 µM | – | > 30 | > 30 | > 10 | > 30 | 19.6 µM and > 10 µM | > 10 | > 30 | > 30 | > 30 | > 30 | > 30 | > 30
